{"source": "patent US20220288057A1", "about": "“CONJOINT THERAPY FOR TREATING SEIZURE DISORDERS” (XENON PHARMACEUTICALS INC., priority 2021, published 2022)", "assay": "Terminal plasma and brain concentrations in AC-MES studies (UHPLC-MS/MS)", "format": "in vivo, mouse", "protocol": "Sample Collection and Preparation: Mice were anesthetized by isoflurane inhalation (according to SOP TECH-018) until they reached a surgical plane of anesthesia. Then a syringe (1 mL syringe with a 22 gauge needle) was inserted under the sternum into the heart (according to SOP TECH-031). Approximately 0.5 mL of blood was collected, deposited into a K2EDTA tube, and stored on ice. Animals were then euthanized by cervical dislocation. Brains were removed, placed into a pre-weighed vial, and snap frozen on dry ice. At the end of the sample collection, blood was centrifuged at 4000 rpm for 10 minutes at 4° C., and the plasma pipetted into a labeled tube. All samples were stored in a −80° C. freezer until the time of bioanalysis.\nPlasma Samples: Extraction of plasma samples was carried out by protein precipitation using acetonitrile. Diluted plasma samples (50 μL) were mixed with 50 μL of internal standard (IS) solution in 1:1 acetonitrile:water (v:v) followed by addition of 200 μL of acetonitrile. Samples were vortexed for 30 seconds, centrifuged at 13,000 rpm for 20 minutes, decanted into a 96-well plate and further centrifuged at 4000 rpm for 20 minutes. The samples were analyzed by ultra-high performance liquid chromatography electrospray ionization tandem mass spectrometry (UHPLC-ESI-MS/MS) as described in the bioanalysis procedure below.\nBrain Samples: Prior to extraction, pre-weighed whole brains were homogenized in 1:1 acetonitrile:water (v:v) (2 mL per mouse brain) using an IKA T18 Ultra-Turrax Homogenizer at the setting of 4 for approximately 1 minute. The homogenate was centrifuged at 13,000 rpm for 20 minutes and 50 μL of the supernatant were treated exactly as described in above for plasma samples.\nBioanalysis Procedures: All samples, including plasma and brain homogenate extracts (including calibration standards and quality control (QC) samples prepared in K2EDTA mouse plasma), were extracted by protein precipitation. To each 50 μL aliquot of sample, 50 μL of IS solution (2500 ng/mL of Lacosamide in water:acetonitrile (1:1)) and 50 μL of 6% (v:v) phosphoric acid in water were added, then 200 μL acetonitrile was added. The samples in 1.7 mL tubes were vortex-mixed then centrifuged for 20 minutes at 13,000 rpm. Fifty microliters of the supernatant was mixed with 150 μL of water:acetonitrile (1:1) in a 96 well plate, which was centrifuged post-mixing for 20 minutes at 4000 rpm. The samples were then ready for UHPLC-MS/MS analysis.\nSamples were analyzed for Compound A by a research-grade UHPLC-MS/MS method using the conditions listed below.\nSamples were analyzed for Lacosamide by a research-grade UHPLC-MS/MS method using the conditions listed below.\nAt least three QC samples, one at each concentration, had to show back-calculated values within ±20% of their nominal concentrations for the whole sample batch to be valid.\nThe Blinding and Randomization, Clinical Observations, AC-MES Assay, Sample Collection and Preparation, Plasma and Brain Samples Analysis, and Bioanalysis Procedures in Example 4 were identical to those used in Example 2.\nSample concentration determination and Data Processing and Analysis in Example 4 was identical to Example 2.", "note": "Where two headings read alike, the source gives them in different places."}
{"smiles": "NC(=O)O[C@@H](Cn1ncnn1)c1ccccc1Cl", "note": "[Cenobamate, reference compound]", "values": [{"measurement": "concentration at 2 h", "setting": "CF-1, mouse, in vivo, 3 mg/kg, Study 4D, Cenobamate 3 mg/kg single oral dose, 2 h pre-treatment, CF-1 mice, read-out: Mean Brain", "result": 8.7, "unit": "µM"}, {"measurement": "concentration at 2 h", "setting": "CF-1, mouse, in vivo, 3 mg/kg, Study 4D, Cenobamate 3 mg/kg single oral dose, 2 h pre-treatment, CF-1 mice, read-out: Mean Plasma", "result": 29.6, "unit": "µM"}, {"measurement": "concentration at 2 h", "setting": "CF-1, mouse, in vivo, 3 mg/kg, Study 4E, Cenobamate 3 mg/kg single oral dose, 2 h pre-treatment, CF-1 mice, read-out: Mean Brain", "result": 12.2, "unit": "µM"}, {"measurement": "concentration at 2 h", "setting": "CF-1, mouse, in vivo, 3 mg/kg, Study 4E, Cenobamate 3 mg/kg single oral dose, 2 h pre-treatment, CF-1 mice, read-out: Mean Plasma", "result": 27.7, "unit": "µM"}, {"measurement": "concentration at 2 h", "setting": "CF-1, mouse, in vivo, 5 mg/kg, Study 4E, Cenobamate 5 mg/kg single oral dose, 2 h pre-treatment, CF-1 mice, read-out: Mean Brain", "result": 22.1, "unit": "µM"}, {"measurement": "concentration at 2 h", "setting": "CF-1, mouse, in vivo, 5 mg/kg, Study 4E, Cenobamate 5 mg/kg single oral dose, 2 h pre-treatment, CF-1 mice, read-out: Mean Plasma", "result": 53.6, "unit": "µM"}, {"measurement": "concentration at 2 h", "setting": "CF-1, mouse, in vivo, 5 mg/kg, Study 4F, Cenobamate 5 mg/kg PO, 2 h, alone, read-out: mean plasma concentration", "result": 31.3, "unit": "µM"}, {"measurement": "concentration at 2 h", "setting": "CF-1, mouse, in vivo, 5 mg/kg, Study 4F, Cenobamate 5 mg/kg PO alone, 2 h pre-treatment, CF-1 mice, read-out: Mean Brain", "result": 12, "unit": "µM"}, {"measurement": "concentration at 2 h", "setting": "CF-1, mouse, in vivo, 5 mg/kg, Study 4F, Cenobamate 5 mg/kg PO alone, 2 h pre-treatment, CF-1 mice, read-out: Mean Plasma", "result": 31.3, "unit": "µM"}, {"measurement": "concentration at 2 h", "setting": "CF-1, mouse, in vivo, 7.5 mg/kg, Cenobamate 7.5 mg/kg PO, 2 h, alone, read-out: mean plasma concentration", "result": 78.1, "unit": "µM"}, {"measurement": "concentration at 2 h", "setting": "CF-1, mouse, in vivo, 7.5 mg/kg, Study 4E, Cenobamate 7.5 mg/kg single oral dose, 2 h pre-treatment, CF-1 mice, read-out: Mean Brain", "result": 34.5, "unit": "µM"}, {"measurement": "concentration at 2 h", "setting": "CF-1, mouse, in vivo, 7.5 mg/kg, Study 4E, Cenobamate 7.5 mg/kg single oral dose, 2 h pre-treatment, CF-1 mice, read-out: Mean Plasma", "result": 78.1, "unit": "µM"}, {"measurement": "concentration at 2 h", "setting": "CF-1, mouse, in vivo, 10 mg/kg, Cenobamate 10 mg/kg PO, 2 h, alone, read-out: mean plasma concentration", "result": 87, "unit": "µM"}, {"measurement": "concentration at 2 h", "setting": "CF-1, mouse, in vivo, 10 mg/kg, Study 4D, Cenobamate 10 mg/kg single oral dose, 2 h pre-treatment, CF-1 mice, read-out: Mean Brain", "result": 26.8, "unit": "µM"}, {"measurement": "concentration at 2 h", "setting": "CF-1, mouse, in vivo, 10 mg/kg, Study 4D, Cenobamate 10 mg/kg single oral dose, 2 h pre-treatment, CF-1 mice, read-out: Mean Plasma", "result": 87, "unit": "µM"}, {"measurement": "concentration at 2 h", "setting": "CF-1, mouse, in vivo, Study 4G, analyte Cenobamate, 5 mg/kg + 0.5 mg/kg Compound A, read-out: mean total plasma concentration", "result": 41.1, "unit": "µM"}, {"measurement": "concentration at 2 h", "setting": "CF-1, mouse, in vivo, Study 4G, analyte Cenobamate, 5 mg/kg + 1 mg/kg Compound A, read-out: mean total plasma concentration", "result": 39.7, "unit": "µM"}, {"measurement": "Kp at 2 h", "setting": "CF-1, mouse, in vivo, po, 3 mg/kg, Study 4D, Cenobamate 3 mg/kg single oral dose, read-out: B/P Ratio (brain to plasma ratio)", "result": 0.29}, {"measurement": "Kp at 2 h", "setting": "CF-1, mouse, in vivo, po, 3 mg/kg, Study 4E, Cenobamate 3 mg/kg single oral dose, read-out: B/P Ratio (brain to plasma ratio)", "result": 0.44}, {"measurement": "Kp at 2 h", "setting": "CF-1, mouse, in vivo, po, 5 mg/kg, Study 4E, Cenobamate 5 mg/kg single oral dose, read-out: B/P Ratio (brain to plasma ratio)", "result": 0.41}, {"measurement": "Kp at 2 h", "setting": "CF-1, mouse, in vivo, po, 5 mg/kg, Study 4F, Cenobamate 5 mg/kg PO alone, read-out: B/P Ratio (brain to plasma ratio)", "result": 0.38}, {"measurement": "Kp at 2 h", "setting": "CF-1, mouse, in vivo, po, 7.5 mg/kg, Study 4E, Cenobamate 7.5 mg/kg single oral dose, read-out: B/P Ratio (brain to plasma ratio)", "result": 0.44}, {"measurement": "Kp at 2 h", "setting": "CF-1, mouse, in vivo, po, 10 mg/kg, Study 4D, Cenobamate 10 mg/kg single oral dose, read-out: B/P Ratio (brain to plasma ratio)", "result": 0.31}, {"measurement": "Kp", "setting": "CF-1, mouse, in vivo, po, 30 mg/kg, Study 4D, Cenobamate 30 mg/kg single oral dose, read-out: B/P Ratio (brain to plasma ratio)", "result": 0.3}, {"measurement": "concentration at 2 h", "setting": "Study 4D, Cenobamate 30 mg/kg single oral dose, CF-1 mice, read-out: Mean Brain", "result": 71.3, "unit": "µM"}, {"measurement": "concentration at 2 h", "setting": "Study 4D, Cenobamate 30 mg/kg single oral dose, CF-1 mice, read-out: Mean Plasma", "result": 237, "unit": "µM"}, {"measurement": "Mean Brain, Cenobamate", "setting": "Study 4F, Cenobamate 5 mg/kg PO (2 h) in combination with Compound A 2 mg/kg PO (0.5 h)", "result": 14.7, "unit": "µM"}, {"measurement": "Mean Brain, Cenobamate", "setting": "Study 4G, Cenobamate 5 mg/kg PO (2 h) in combination with Compound A 0.5 mg/kg PO (0.5 h)", "result": 18.1, "unit": "µM"}, {"measurement": "Mean Brain, Cenobamate", "setting": "Study 4G, Cenobamate 5 mg/kg PO (2 h) in combination with Compound A 1 mg/kg PO (0.5 h)", "result": 17.0, "unit": "µM"}]}
